Measurements published in US11607423B2, “Combination of a cannabinoid and a chemotheraopeutic agent for the treatment of breast cancer” (Akos Biosciences, Inc., priority 2018, dated 2023).

Tests used:
pERK = pERK level by western blotting in MCF7 cells, relative to GAPDH loading control; format: cell-based; conditions: CBD 100 nM, 1 μM or 10 μM, 48 h, band density relative to GAPDH, 5 separate experiments, FIG. 2
Procedure: The breast cancer cell line MCF7, growing exponentially, was reset at a concentration of 1×10^4/ml and allowed to adhere overnight. Cannabidiol (CBD) was added at 100 nM, 1 μM, or 10 μM, and cells were harvested for standard western blotting techniques after 48 h. Immunoprobing was performed using anti-pERK antibodies, and the densities of each band determined. These values were then expressed relative to a GAPDH loading control.

[1] = system: breast cancer cell line MCF7; test: MCF7 cell viability by cell counting with trypan blue after 48 h; format: cell-based; conditions: CBD 0.1, 1 or 10 μM, FIG. 1
From the text: The breast cancer cell line MCF7, growing exponentially, was reset at a concentration of 1×10^4/ml and allowed to adhere overnight.

SMILES: C=C(C)[C@@H]1CCC(C)=C[C@H]1c1c(O)cc(CCCCC)cc1O [CBD, cannabidiol]
- pERK relative to controls (pERK): increased
- viability of cancer cells [1]: unaffected
